How the values were obtained:
RORγ-LBD = target: T1, RORγ-LBD (Homo sapiens, UniProt P51449); test: RORγ-Ligand Binding Domain (LBD) TR-FRET Assay; type: biochemical; conditions: for TR-FRET Assay Max Response: upper plateau of 4-parameter fit, signal in absence of ursolic acid or test compound set as 100; for EC50: with 2 μM ursolic acid (RORγ antagonist), highest test concentration 10 μM
T1 construct: made in house; host or cells: SF9 cells, baculovirus expression system (lysate used)
T1 sequence (P51449 269-508 limits assumed): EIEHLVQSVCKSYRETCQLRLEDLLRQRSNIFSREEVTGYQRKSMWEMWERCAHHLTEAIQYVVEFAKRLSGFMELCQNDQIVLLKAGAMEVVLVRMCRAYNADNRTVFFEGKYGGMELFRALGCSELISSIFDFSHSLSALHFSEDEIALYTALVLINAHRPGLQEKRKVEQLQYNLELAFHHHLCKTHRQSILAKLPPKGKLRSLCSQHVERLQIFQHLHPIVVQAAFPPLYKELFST
Experimental: HIS-tagged RORγ-LBD protein was expressed in SF9 cells using a baculovirus expression system. The lysate was diluted in assay buffer (50 mM Tris pH 7.0, 50 mM KCl, 1 mM EDTA, 0.1 mM DTT, 0.01% BSA) to obtain RORγ-LBD final concentration of −3 nM in a 384-well assay plate (need to titrate for each batch of protein).
A stock of biotinylated-LXXLL peptide from coactivator SRC1 (Biotin-[…]) was prepared in assay buffer and added to each well (200 nM final concentration). A solution of Europium tagged anti-HIS antibody (0.6 nM final concentration) and APC-conjugated streptavidin (30 nM final concentration) were also added to each well. RORγ antagonist ursolic acid was also included at a final concentration of 2 μM. Compounds were diluted in DMSO and further diluted in assay buffer with a final DMSO concentration at 1%. The highest concentration of test compound analyzed was 10 μM.
The final assay mixture was incubated overnight at 4° C. or 2 hours at room temperature, and the fluorescence signal was measured on an Envision plate reader: (Excitation filter=340 nm; APC emission=665 nm; Europium emission=615 nm; dichroic mirror=D400/D630; delay time=100 μs, integration time=200 μs). 50% Effective concentration (EC50) values for test compounds were calculated from the quotient of the fluorescence signal at 665 nm divided by the fluorescence signal at 615 nm. The quotient of the fluorescence signals in the absence of ursolic acid or test compound is set as 100. Max Response is defined as the upper plateau in the signal as determined by line-fit using a 4-parameter logistic model in PRISM (GraphPad).

Gal4-RORγ-LBD = target: T2, Gal4-RORγ-LBD (Homo sapiens, UniProt P51449); test: Gal4-RORγ Luciferase Reporter Assay in HEK-293T Cells; type: cell-based; conditions: for EC50: HEK-293 cells, with 2 μM ursolic acid, overnight incubation; for Gal4-RORγ Assay Max Response: upper plateau of 4-parameter fit, luciferase signal in absence of ursolic acid or test compound defined at 100
T2 construct: expressed in transfected cells; host or cells: HEK-293 cells, pcDNA3.1neo plasmid
T2 sequence (P51449 269-508 limits assumed): T1 sequence (P51449 269-508 limits assumed)
Experimental: In the following protocol, HEK-293 cells were transfected with a construct comprising the Gal4 DNA binding domain fused to the ligand binding domain of RORγ (Gal4-RORγ-LBD) in a pcDNA3.1neo plasmid, and also with a reporter construct comprising pGL4.31 Gal4-luciferase (Promega). Control cells were prepared similarly using empty pcDNA3.1neo and pGL4.31 vectors.
Trans-IT reagent (Mirus, 60 μL) at room temperature was added drop wise to OptiMEM (Invitrogen, 1.5 ml). This reagent mixture was mixed by inversion then incubated for 5 to 30 minutes at room temperature. It then was added to a solution of both expression vectors (5 μg each), mixed, and incubated at room temperature for about 20 minutes. HEK-293 cells were harvested from incubation flasks by removing the media, treating with TrypLE Express (Invitrogen), and incubating until the cells detached from the bottom of the flask (approximately 2-5 minutes). 10 Million cells were collected by centrifugation and re-suspended in 10 mL of Dulbecco's Modified Eagle Medium, High Glucose (DMEM, Invitrogen) containing 10% Fetal Bovine Serum and 100 IU each of penicillin and streptomycin. The re-suspended cells and the transfection mixture were added to a T75 flask, mixed and incubated overnight at 37° C. and 5% CO2.
The cells were harvested as described above, counted, and centrifuged to obtain the desired number of cells, then re-suspended in complete growth media at 0.75×10^6 cells/mL. The RORγ antagonist, ursolic acid, was added to the cells at a final concentration of 2 μM. Cells were plated at 20 μL of cell suspension/well (10,000-15,000 cells/well) in white tissue culture treated 384 well plates. Test compounds were dissolved at 10 mM in DMSO then diluted into complete growth medium to 5× the final intended test concentration. These drug stock solutions, 5 μL/well were added to the tissue culture plate. The final DMSO concentration was 0.2%. The plates were briefly centrifuged then incubated overnight at 37° C. and 5% CO2. To conduct the assay, the tissue culture plates were allowed to equilibrate to room temperature and One-Glo luciferase reagent (Promega, 25 μL/well) was added. The plates were briefly centrifuged then incubated at room temperature for 10 minutes. The luciferase intensity was read on an Envision plate reader (Perkin Elmer). RORγ activity was determined relative to controls and plotted as a function of test compound concentration using PRISM (GraphPad) to determine a 50% effective concentration (EC50). The luciferase signal in the absence of ursolic acid or test compound is defined at 100. The Max Response is the upper plateau in the signal as determined by line-fit using a 4-parameter logistic model in PRISM (GraphPad).

What does the source list for `O=S(=O)(c1cccc(C(F)(F)F)c1)N1COc2ccc(-c3cc(F)ccc3F)cc21` [Example 1, 5-(2,5-difluorophenyl)-3-((3-(trifluoromethyl)phenyl)sulfonyl)-2,3-dihydrobenzo[d]oxazole]?
TR-FRET Assay Max Response (RORγ-LBD): *** (a value in the range of greater than 150 to 200); EC50 (RORγ-LBD): < 500 nM; EC50 (Gal4-RORγ-LBD): < 500 nM; Gal4-RORγ Assay Max Response (Gal4-RORγ-LBD): ** (a value in the range of greater than 90 to 150)

What does the source list for `CCOC(=O)CC1CN(S(=O)(=O)c2cccc(C(F)(F)F)c2)c2cc(-c3cc(F)ccc3F)ccc21` (stereo not drawn) [Example 2, ethyl 2-(6-(2,5-difluorophenyl)-1-((3-(trifluoromethyl)phenyl)sulfonyl)indolin-3-yl)acetate]?
TR-FRET Assay Max Response (RORγ-LBD): *** (a value in the range of greater than 150 to 200); EC50 (RORγ-LBD): < 500 nM; EC50 (Gal4-RORγ-LBD): < 500 nM; Gal4-RORγ Assay Max Response (Gal4-RORγ-LBD): ** (a value in the range of greater than 90 to 150)

For `O=C(O)CC1CN(S(=O)(=O)c2cccc(C(F)(F)F)c2)c2cc(-c3cc(F)ccc3F)ccc21` (stereo not drawn) [Example 3, 2-(6-(2,5-difluorophenyl)-1-((3-(trifluoromethyl)phenyl)sulfonyl)indolin-3-yl)acetic acid], which “TR-FRET Assay Max Response” value (RORγ-LBD) is on record?
The value was “** (a value in the range of greater than 90 to 150)”.

What about the EC50 (RORγ-LBD) of the same compound?
Its EC50 is under 500 nM.

What about the EC50 (Gal4-RORγ-LBD) of the same compound?
Its EC50 is 5000 to 10000 nM.

What about the “Gal4-RORγ Assay Max Response” value (Gal4-RORγ-LBD) of the same compound?
The value was “** (a value in the range of greater than 90 to 150)”.

How did the EC50 (Gal4-RORγ-LBD) turn out when `O=S(=O)(c1cccc(C(F)(F)F)c1)c1c[nH]c2ccc(-c3cc(F)ccc3F)cc12` [Example 4, 5-(2,5-difluorophenyl)-3-((3-(trifluoromethyl)phenyl)sulfonyl)-1H-indole] was run?
Its EC50 is over 10000 nM.

And the “Gal4-RORγ Assay Max Response” value (Gal4-RORγ-LBD)?
Its value is “* (a value in the range of 25 to 90)”.

Which results are given for `COC(=O)CCC1Cc2ccc(-c3cc(F)ccc3F)cc2N1S(=O)(=O)c1cccc(C(F)(F)F)c1` (stereo not drawn) [Example 5, methyl 3-(6-(2,5-difluorophenyl)-1-((3-(trifluoromethyl)phenyl)sulfonyl)indolin-2-yl)propanoate]?
TR-FRET Assay Max Response (RORγ-LBD): *** (a value in the range of greater than 150 to 200); EC50 (RORγ-LBD): < 500 nM; EC50 (Gal4-RORγ-LBD): < 500 nM; Gal4-RORγ Assay Max Response (Gal4-RORγ-LBD): ** (a value in the range of greater than 90 to 150)

What does the source list for `O=C(O)CCC1Cc2ccc(-c3cc(F)ccc3F)cc2N1S(=O)(=O)c1cccc(C(F)(F)F)c1` (stereo not drawn) [Example 6, 3-(6-(2,5-difluorophenyl)-1-((3-(trifluoromethyl)phenyl)sulfonyl)indolin-2-yl)propanoic acid]?
TR-FRET Assay Max Response (RORγ-LBD): *** (a value in the range of greater than 150 to 200); EC50 (RORγ-LBD): < 500 nM; EC50 (Gal4-RORγ-LBD): 500 to 5000 nM; Gal4-RORγ Assay Max Response (Gal4-RORγ-LBD): *** (a value in the range of greater than 150 to 200)

With `COC(=O)CCc1cc2ccc(-c3cc(F)ccc3F)cc2n1S(=O)(=O)c1cccc(C(F)(F)F)c1` [Example 7, methyl 3-(6-(2,5-difluorophenyl)-1-((3-(trifluoromethyl)phenyl)sulfonyl)-1H-indol-2-yl)propanoate] as the compound, how does the “TR-FRET Assay Max Response” value (RORγ-LBD) read?
The value was “*** (a value in the range of greater than 150 to 200)”.

What about the EC50 (RORγ-LBD) of the same compound?
Its EC50 is 500 to 5000 nM.

What about the EC50 (Gal4-RORγ-LBD) of the same compound?
The EC50 was 500 to 5000 nM.

What about the “Gal4-RORγ Assay Max Response” value (Gal4-RORγ-LBD) of the same compound?
Its value is “* (a value in the range of 25 to 90)”.

How did the “TR-FRET Assay Max Response” value (RORγ-LBD) turn out when `O=C(O)CCc1cc2ccc(-c3cc(F)ccc3F)cc2n1S(=O)(=O)c1cccc(C(F)(F)F)c1` [Example 8, 3-(6-(2,5-difluorophenyl)-1-((3-(trifluoromethyl)phenyl)sulfonyl)-1H-indol-2-yl)propanoic acid] was run?
The value was “*** (a value in the range of greater than 150 to 200)”.

What about the EC50 (RORγ-LBD) of the same compound?
Its EC50 is 500 to 5000 nM.

And the EC50 (Gal4-RORγ-LBD)?
Its EC50 is 500 to 5000 nM.

What about the “Gal4-RORγ Assay Max Response” value (Gal4-RORγ-LBD) of the same compound?
The value was “** (a value in the range of greater than 90 to 150)”.
